Measured values reported in article PMC9784495, “Pharmacokinetic Comparison of Ginsenosides between Fermented and Non-Fermented Red Ginseng in Healthy Volunteers” (Pharmaceutics, 2022).
Several values for one entry are separate records, joined by “and”; a condition that tells them apart may be missing. Identical values can stand only once. Entries after “also recorded” stand apart in the source; their conditions may differ. Like-named read-outs stand apart in the source and are kept apart here. Marks after values point to notes of the source that are not given here.

Experiment: Pharmacokinetics of ginsenosides in plasma after a single oral dose of 6 g FRG or RG, crossover clinical trial
Assay type: in vivo, human
Conditions: for AUC24 GMR (90% CI) / AUClast GMR (90% CI) / Cmax GMR (90% CI): geometric mean ratio FRG with respect to RG; for Tmax / AUC / Cmax / AUC(0-t): human, po
Method: This study was designed as a randomized, open-label, single-dose, 2-sequence, 2-period crossover study with a washout period of 2 weeks to compare the pharmacokinetic parameters of ginsenosides in RG and FRG. All subjects underwent a screening test for enrollment in the current study, and the enrolled subjects were randomly allocated into one of two sequence groups: sequence 1, and sequence 2. The subjects in sequence group 1 were administered 6 g of FRG extract with 200 mL water in the first period, and 6 g of RG extract with 200 mL water in the second period, after a washout period of 2 weeks from the first administration. Subjects in sequence group 2 were administered 6 g of RG extract with 200 mL water in the first period, and then 6 g of FRG extract with 200 mL water in the second period, after the same washout period. During each period, for groups 1 and 2, subjects were hospitalized at the clinical trial center of Kyung Hee University Hospital at 5 PM the day before FRG or RG administration. They received a standardized dinner and fasted, except for drinking water, until FRG or RG administration. The following day, subjects were administered FRG or RG at 8 AM according to the assigned sequence group, and were not allowed to eat until 1 PM. All participants were provided lunch and dinner by the study staff. They were discharged at 2 PM the day after dosing with FRG or RG, and visited the clinical trial center at 8 AM the day after discharge. To assess pharmacokinetic parameters, blood samples (9 mL) were serially collected into heparinized tubes just before (0 h) the dose of FRG or RG, and after the dose of FRG or RG at the following time points: 0.5, 1, 2, 3, 4, 5, 6, 7, 8, 10, 12, 14, 24, and 30 h during hospitalization, and 48 h at the outpatient visit. Blood samples were placed into heparinized tubes and centrifuged immediately at 3500× g, 10 min, and −4 °C. Plasma was stored at −70 °C.
CY, CK, PPD, PPT, and Rh2 were analyzed as previously described. An Agilent 1200 series (Agilent Technologies, Santa Clara, CA, USA) or Shimadzu Nexera X2 (Shimadzu, Tokyo, Japan), and Applied Biosystems MDS SCIEX API 4000 Triple Quadrupole Mass Spectrometer (SCIEX, Framingham, MA, USA) with an ESI source in the negative ion mode, were used. Data were analyzed and processed using the Analyst 1.6.2 program (SCIEX, Framingham, MA, USA). Rb1 and F2 were analyzed using Elute UHPLC (Bruker, Billerica, MA, USA) and an EVOQ Elite triple quadrupole mass spectrometer (Bruker, Billerica, MA, USA) with an ESI source in positive ion mode. Data were acquired and processed using the Analyst 1.6.2 program (SCIEX, Framingham, MA, USA), and Bruker Daltonic MS Workstation 8.2.1 (Bruker, Billerica, MA, USA). Ginsenosides standards (Rb1, Rh2 and C-Y) were provided by the Ambo Institute (Daejeon, Republic of Korea). Ginsenosides standards (F2, CK, PPD and PPT) were provided by Ace Enzyme (Kyunggi-do, Republic of Korea). Digoxin, diphenhydramine hydrochloride, formic acid, ammonium acetate, and dimethyl sulfoxide were purchased from Sigma Aldrich (Saint Louis, MO, USA). Methanol, acetonitrile, ethyl acetate, and methyl tertiary butyl ether were purchased from J.T. Baker (Philipsburg, NJ, USA) and purified water for HPLC analysis was obtained using AQUA max® by Younglin (Kyunggi-do, Republic of Korea) water purification system. The final concentrations of the calibration standards were 0.5, 1, 2, 5, 10, 25, and 50 ng/mL, and those of the QC samples were 1.5, 7.5, and 40 ng/mL. The final concentrations of the CK calibration standard were 5, 50, 250, 500, 1000, 1500, and 2500 ng/mL, and those of the QC samples were 15, 1200, and 2000 ng/mL. The human plasma samples were taken out of the −70 °C freezer and thawed at room temperature for the bioanalysis. […]

[1] = plasma, after 6 g FRG oral single dose, median (min, max), read-out: Tmax
[2] = plasma, plasma, after 6 g FRG oral single dose, 0 to 24 h, mean ± SD, read-out: AUC24
[3] = plasma, plasma, after 6 g FRG oral single dose, healthy volunteers, mean ± SD, n = 15, read-out: Cmax
[4] = plasma, plasma, after 6 g FRG oral single dose, mean ± SD, read-out: AUClast
[5] = plasma, plasma, after 6 g RG oral single dose, 0 to 24 h, mean ± SD, read-out: AUC24
[6] = plasma, plasma, after 6 g RG oral single dose, healthy volunteers, mean ± SD, n = 15, read-out: Cmax
[7] = plasma, plasma, after 6 g RG oral single dose, mean ± SD, read-out: AUClast
[8] = plasma, after 6 g RG oral single dose, median (min, max), read-out: Tmax

| SMILES | AUC24 GMR (90% CI) | AUClast GMR (90% CI) | Cmax GMR (90% CI) | Tmax [1] [h] | AUC [2] [ng·h/mL] | Cmax [3] [ng/mL] | AUC(0-t) [4] [ng·h/mL] | AUC [5] [ng·h/mL] | Cmax [6] [ng/mL] | AUC(0-t) [7] [ng·h/mL] | Tmax [8] [h] | also measured |
| --- | --- | --- | --- | --- | --- | --- | --- | --- | --- | --- | --- | --- |
| CC(C)=CCC[C@](C)(O[C@@H]1O[C@H](CO)[C@@H](O)[C@H](O)[C@H]1O)[C@H]1CC[C@]2(C)[C@@H]1[C@H](O)C[C@@H]1[C@@]3(C)CC[C@H](O)C(C)(C)[C@@H]3CC[C@]12C [CK, compound K] | 64.86 fold and 64.86 (51.12, 82.29) * fold | 74.53 fold and 74.53 (59.32, 93.64) * fold | 69.23 fold and 69.23 (55.93, 85.69) * fold | 3.02 | 8710 ± 2360 | 1550 ± 394 | 9440 ± 2620 | 158 ± 125 | 23.8 ± 12.2 | 145 ± 106 | – | Difference of median Tmax, FRG higher than RG (FRG versus RG): 1 h |
| CC(C)=CCC[C@](C)(O[C@@H]1O[C@H](CO[C@@H]2OC[C@H](O)[C@H](O)[C@H]2O)[C@@H](O)[C@H](O)[C@H]1O)[C@H]1CC[C@]2(C)[C@@H]1[C@H](O)C[C@@H]1[C@@]3(C)CC[C@H](O)C(C)(C)[C@@H]3CC[C@]12C [CY, compound Y] | – | – | – | – | – | – | – | – | – | – | – | AUC (in vivo, AUC24): 33.4 ± 9.82 ng·h/mL; AUC(0-t) (in vivo, AUClast): 32.5 ± 9.44 ng·h/mL; Cmax (in vivo, Cmax): 8.38 ± 2.22 ng/mL; Tmax (in vivo, Tmax): 3.02 h |
| CC(C)=CCC[C@](C)(O[C@@H]1O[C@H](CO)[C@@H](O)[C@H](O)[C@H]1O)[C@H]1CC[C@]2(C)[C@@H]1[C@H](O)C[C@@H]1[C@@]3(C)CC[C@H](O[C@@H]4O[C@H](CO)[C@@H](O)[C@H](O)[C@H]4O)C(C)(C)[C@@H]3CC[C@]12C [Ginsenoside F2] | – | – | – | 4.03 | 142 ± 34.3 | 14.7 ± 3.58 | 168 ± 47.4 | – | – | – | – | Plasma concentrations (after 6 g RG, F2 except one subject): below the lower limit of quantification; also recorded: below the LLOQ |
| CC(C)=CCC[C@](C)(O)[C@H]1CC[C@]2(C)[C@@H]1[C@H](O)C[C@@H]1[C@@]3(C)CC[C@H](O)C(C)(C)[C@@H]3CC[C@]12C [PPD, protopanaxadiol] | – | 4.97 (2.38, 10.34) ^‡ fold | – | 12 | 48.7 ± 41.1 | 5.65 ± 4.78 | 92.2 ± 96.5 | 13.9 ± 19.1 | 1.99 ± 1.62 | 20.3 ± 25.1 | 27.1 | – |
| CC(C)=CCC[C@](C)(O)[C@H]1CC[C@]2(C)[C@@H]1[C@H](O)C[C@@H]1[C@@]3(C)CC[C@H](O)C(C)(C)[C@@H]3[C@@H](O)C[C@]12C [PPT, protopanaxatriol] | 1.87 fold and 1.87 (1.16, 3.01) ^† fold | 1.76 fold and 1.76 (1.17, 2.65) ^† fold | 2.56 fold and 2.56 (1.83, 3.57) * fold | 6 | 63.7 ± 42.8 | 8.92 ± 5.38 | 83 ± 59.4 | 34.1 ± 24.7 | 3.5 ± 2 | 45.7 ± 32.1 | 19 | – |
| CC(C)=CCC[C@](C)(O[C@@H]1O[C@H](CO[C@@H]2O[C@H](CO)[C@@H](O)[C@H](O)[C@H]2O)[C@@H](O)[C@H](O)[C@H]1O)[C@H]1CC[C@]2(C)[C@@H]1[C@H](O)C[C@@H]1[C@@]3(C)CC[C@H](O[C@@H]4O[C@H](CO)[C@@H](O)[C@H](O)[C@H]4O[C@@H]4O[C@H](CO)[C@@H](O)[C@H](O)[C@H]4O)C(C)(C)[C@@H]3CC[C@]12C [Rb1] | – | – | – | – | – | – | – | 36.5 ± 25.6 | 2.33 ± 1.61 | 62.4 ± 48.1 | 8 | Plasma concentrations (after 6 g FRG): below the LLOQ |
| CC(C)=CCC[C@](C)(O)[C@H]1CC[C@]2(C)[C@@H]1[C@H](O)C[C@@H]1[C@@]3(C)CC[C@H](O[C@@H]4O[C@H](CO)[C@@H](O)[C@H](O)[C@H]4O)C(C)(C)[C@@H]3CC[C@]12C [Rh2] | 18.17 fold and 18.17 (12.4, 26.62) * fold | 18.47 fold and 18.47 (12.74, 26.78) * fold | 20.27 fold and 20.27 (15.13, 27.17) * fold | – | – | – | – | – | – | – | – | Tmax (in vivo, after 6 g FRG oral single dose, median (min, max), read-out: Tmax): 3.02 h; Tmax (in vivo, after 6 g RG oral single dose, median (min, max), read-out: Tmax): 3 h; AUC (in vivo, plasma, after 6 g FRG oral single dose, 0 to 24 h, mean ± SD, read-out: AUC24): 135 ± 44.4 ng·h/mL; Cmax (in vivo, plasma, after 6 g FRG oral single dose, healthy volunteers, mean ± SD, n = 15, read-out: Cmax): 33 ± 11.9 ng/mL; AUC(0-t) (in vivo, plasma, after 6 g FRG oral single dose, mean ± SD, read-out: AUClast): 133 ± 42.6 ng·h/mL; AUC (in vivo, plasma, after 6 g RG oral single dose, 0 to 24 h, mean ± SD, read-out: AUC24): 8.97 ± 5.57 ng·h/mL; Cmax (in vivo, plasma, after 6 g RG oral single dose, healthy volunteers, mean ± SD, n = 15, read-out: Cmax): 1.77 ± 1.17 ng/mL; AUC(0-t) (in vivo, plasma, after 6 g RG oral single dose, mean ± SD, read-out: AUClast): 8.35 ± 4.31 ng·h/mL |
